The text below walks through data of PMC3500524 (Cancer cell, 2012).

Series [1] deals with T1, 6PGD (Homo sapiens, UniProt P52209).
T1 sequence (P52209 1-483): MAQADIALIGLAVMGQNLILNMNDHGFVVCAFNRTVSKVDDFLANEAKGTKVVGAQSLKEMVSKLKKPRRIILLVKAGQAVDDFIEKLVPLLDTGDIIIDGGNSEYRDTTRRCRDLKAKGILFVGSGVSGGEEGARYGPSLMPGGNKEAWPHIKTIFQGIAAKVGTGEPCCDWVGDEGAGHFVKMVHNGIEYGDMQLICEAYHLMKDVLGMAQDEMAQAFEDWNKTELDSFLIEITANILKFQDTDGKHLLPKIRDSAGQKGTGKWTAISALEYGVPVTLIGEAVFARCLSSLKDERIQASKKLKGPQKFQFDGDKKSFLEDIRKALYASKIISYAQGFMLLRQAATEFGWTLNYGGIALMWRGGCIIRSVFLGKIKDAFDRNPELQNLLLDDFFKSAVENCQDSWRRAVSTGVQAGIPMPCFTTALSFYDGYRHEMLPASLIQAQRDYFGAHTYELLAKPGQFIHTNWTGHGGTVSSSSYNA
Put plainly: 6PGD enzyme kinetics.

Series [2] concerns the target T1, 6PGD. The experiment in a line: in vitro 6PGD enzyme activity assay. It counts as biochemical. As to conditions: H1299 cell lysates or r6PGD.
Series [3] deals with T1, 6PGD. The experiment in a line: thermal melt shift assay of 6PGD with ligand. It counts as binding. As to conditions: read-out: Kd for protein (6PGD)-ligand interaction.
The next series addresses G6PD (Homo sapiens, UniProt P11413). Put plainly: in vitro G6PD enzyme activity assay. It counts as biochemical. As to conditions: increasing concentrations; H1299 cell lysates or rG6PD.
A further series relates to cancer cells. As to conditions: ref Engel et al., 2004; Evans et al., 2005; cited from earlier work.
In a further series the target is PGAM1 (Homo sapiens, UniProt P18669). As to conditions: intact cells, ref Evans et al., 2007, 2005; cited from earlier work.
Sequence of PGAM1 (P18669 whole entry): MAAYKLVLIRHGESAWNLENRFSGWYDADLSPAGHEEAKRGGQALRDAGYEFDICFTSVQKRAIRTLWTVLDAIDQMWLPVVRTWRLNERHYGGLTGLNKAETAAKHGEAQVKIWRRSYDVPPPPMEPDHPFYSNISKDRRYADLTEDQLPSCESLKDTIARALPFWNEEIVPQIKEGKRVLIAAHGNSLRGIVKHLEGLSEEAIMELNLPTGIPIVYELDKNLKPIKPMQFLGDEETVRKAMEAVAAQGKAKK
Another series concerns the target T2, PHGDH (Homo sapiens, UniProt O43175).
T2 sequence (O43175 1-533): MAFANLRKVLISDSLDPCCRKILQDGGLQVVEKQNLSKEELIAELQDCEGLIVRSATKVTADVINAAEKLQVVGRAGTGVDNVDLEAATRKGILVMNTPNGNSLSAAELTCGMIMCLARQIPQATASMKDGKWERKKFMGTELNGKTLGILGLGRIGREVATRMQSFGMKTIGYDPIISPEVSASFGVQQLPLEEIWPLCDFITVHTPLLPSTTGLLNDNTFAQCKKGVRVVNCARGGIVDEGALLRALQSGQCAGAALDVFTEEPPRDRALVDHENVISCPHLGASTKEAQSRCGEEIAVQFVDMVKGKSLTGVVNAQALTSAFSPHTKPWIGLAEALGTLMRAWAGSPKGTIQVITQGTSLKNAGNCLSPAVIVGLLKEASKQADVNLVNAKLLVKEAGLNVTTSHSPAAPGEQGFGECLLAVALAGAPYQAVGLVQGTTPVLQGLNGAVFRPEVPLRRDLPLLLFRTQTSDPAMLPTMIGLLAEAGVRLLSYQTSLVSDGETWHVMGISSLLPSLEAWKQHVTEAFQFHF
The experiment in a line: PHGDH enzyme activity assay. It counts as biochemical.

The test system of series [4] is primary leukemia cells from human patients. Put plainly: treatment of primary leukemia cells from human patients. It counts as cell-based.
The test system of series [5] is H1299 cells. The experiment in a line: metabolism of H1299 cells under inhibitor treatment. It counts as cell-based, human.
For a further series, the system named is H1299 xenograft. The experiment in a line: H1299 xenograft in nude mice. It counts as in vivo, mouse.
Series [6] has as its system H1299 cells. Put plainly: cell proliferation of H1299 cells. It counts as cell-based, human.
The test system of another series is nude mice. Put plainly: toxicity studies in nude mice. It counts as in vivo.
Series [7] has as its system diverse human cancer and leukemia cells. Put plainly: cell proliferation / viability by trypan blue exclusion. It counts as cell-based.
The test system of series [8] is human dermal fibroblasts (HDF), human foreskin fibroblasts (HFF), HaCaT keratinocyte cells, melanocyte PIG1 cells. The experiment in a line: cell proliferation / viability of normal proliferating human cells. It counts as cell-based.
Series [9] concerns the target purified human PGAM1 proteins (Homo sapiens, UniProt P18669). The experiment in a line: PGAM1 enzyme assay. The following applies: comparison among alizarin and derivatives. It counts as biochemical.
Series [10] deals with human leukemia KG1a cells. The experiment in a line: proliferation of KG1a cells. It counts as cell-based. As to conditions: dose-dependent.
[11] abbreviates: primary leukemia cells, representative AML patient.
The mark [12] stands for this setting: samples from 7 (1 CML and 6 AML) out of 8 leukemia patients.

What is called Ki is the equilibrium dissociation constant of an inhibitor or competing ligand from its target. What is called Kd is the free concentration of one partner at which half of the binding sites on the other are occupied at equilibrium, for simple one-to-one binding.

Sequence of purified human PGAM1 proteins (P18669 whole entry): as the sequence (P18669 whole entry) above
Sequence of G6PD (P11413 whole entry): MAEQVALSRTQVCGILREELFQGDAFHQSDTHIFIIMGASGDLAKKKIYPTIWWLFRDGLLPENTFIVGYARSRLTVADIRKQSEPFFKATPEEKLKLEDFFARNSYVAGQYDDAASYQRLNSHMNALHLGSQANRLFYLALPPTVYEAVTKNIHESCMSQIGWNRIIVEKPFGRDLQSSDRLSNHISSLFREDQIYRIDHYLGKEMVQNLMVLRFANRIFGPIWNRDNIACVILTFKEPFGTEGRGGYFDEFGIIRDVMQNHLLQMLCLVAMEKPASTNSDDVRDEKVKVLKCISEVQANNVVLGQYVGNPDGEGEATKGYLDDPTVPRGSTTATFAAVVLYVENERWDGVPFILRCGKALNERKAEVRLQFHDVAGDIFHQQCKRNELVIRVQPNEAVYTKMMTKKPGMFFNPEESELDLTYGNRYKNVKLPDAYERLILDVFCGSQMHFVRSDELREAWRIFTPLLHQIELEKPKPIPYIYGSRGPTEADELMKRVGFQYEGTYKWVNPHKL

Regarding `O=C(O)[C@H](O)COP(=O)(O)O` [3-PG, 3-phosphoglycerate], the “mode of 6PGD inhibition” value at 6PGD [1] (Lineweaver-Burk plot, 3-PG ~250μM, 6-PG ~35μM) is given as “competitive inhibitor of 6PGD”. In addition, at 6PGD [1] (read-out: inhibition constant (Ki) of 6PGD, Dixon plot), the inhibitory constant (Ki) stood at 489 ± 13 µM. Further, the 6PGD enzyme activity result is “do not significantly affect 6PGD enzyme activity” on 6PGD [2] (3-PG ~60μM) and “decreased enzyme activity of 6PGD” at 6PGD [2] (3-PG ~250μM). Further, the dissociation constant (Kd) at 6PGD [3] was determined as 460 ± 40 µM. The G6PD activity entry on G6PD is “did not significantly affect G6PD activity”.

In the case of `C#CCCCC(=O)OC(C)(C)C1CCC2(CO2)C(OC(=O)NC(Cc2c[nH]c3ccccc23)C(=O)OCc2ccccc2)C1` (stereo not shown) [MJE3], the cancer cell proliferation entry in the series on cancer cells was “attenuates cancer cell proliferation”. Moreover, the PGAM1 activity entry at PGAM1 was “specifically inhibits PGAM1 activity exclusively in intact cells”.

For `O=C(O)[C@@H](CO)OP(=O)(O)O` [2-PG, 2-phosphoglycerate], the PHGDH activity result on PHGDH (2-PG ~15μM) is reported as “did not significantly affect PHGDH activity”. In addition, the PHGDH enzyme activity entry on PHGDH (2-PG ~45μM or ~60μM, H1299 PGAM1 knockdown cell lysates) is “higher PHGDH enzyme activity”. Besides, the “enzyme activity of recombinant PHGDH (rPHGDH)” value at PHGDH (increasing concentrations of 2-PG) is “increased enzyme activity of recombinant PHGDH”. Further, the 6PGD enzyme activity result on 6PGD [2] (2-PG) was “did not affect 6PGD enzyme activity”.

With `O=C1c2ccccc2C(=O)c2c1cc(S(=O)(=O)Nc1ccc(C(F)(F)F)cc1)c(O)c2O` [PGMI-004A], in series [4] (setting [11]), the 2-PG levels entry is reported as “decreased 2-PG levels” and the 3-PG levels entry is recorded as “increased 3-PG”. In series [4] (setting [12]), the PGAM1 activity result is reported as “reduced PGAM1 activity”, the cell viability result is listed as “decreased cell viability” and the lactate production entry is “reduced”. For the same compound, in the series on H1299 cells [5], the 2-PG levels result is listed as “decreased 2-PG”, the 3-PG levels entry is “increased 3-PG levels”, the “biosynthesis of RNA” value was “reduced biosynthesis” and the biosynthesis of lipids entry is reported as “reduced biosynthesis of lipids”. Further, in the series on H1299 cells [5], the “intracellular ATP levels” value is on record as “no significant effect on intracellular ATP levels”, the lactate production entry is recorded as “significantly reduced lactate production” and the “oxidative PPP flux” value is “decreased oxidative PPP flux”. For the same compound, the “PGAM1 enzyme activity in resected tumors” value in the series on H1299 xenograft (100mg/kg/day) is on record as “effectively inhibits PGAM1 enzyme activity in tumors”. The “tumor growth and tumor size” value with H1299 xenograft (100mg/kg/day i.p., 21 days, vs vehicle) is “significantly decreased tumor growth and tumor size”. Also, the cell proliferation result in the series on H1299 cells [6] is on record as “reduced”. The “histopathological analyses vs vehicle-treated group” value in the series on nude mice is “no notable differences”. Moreover, the “tolerability of chronic injection” value in the series on nude mice (100mg/kg/day intraperitoneally, 4 weeks) was “well-tolerated dose”. The “body weight, complete blood counts (CBC), hematopoietic properties” value with nude mice (100mg/kg/day, 7 days) is reported as “did not result in significant alteration”. Also, in series [7], the cell proliferation entry was “decreased cell proliferation”. The “non-specific toxicity (cell proliferation) in normal cells” value in series [8] was “minimal non-specific toxicity”.

`O=C1c2ccccc2C(=O)c2c1cc(S(=O)(=O)O)c(O)c2O` [alizarin Red S]: in series [9], the “relative potency as PGAM1 inhibitor in vitro” value was “more potent PGAM1 inhibitor”.

In the case of `O=C1c2ccccc2C(=O)c2c1ccc(O)c2O` [alizarin, 1,2-dihydroxyanthraquinone], the cell proliferation result in series [10] was “decreased proliferation”.
